Two compounds from patent US20110217391A1, “MATRIX METALLOPROTEASE (MMP) PRODUCTION INHIBITOR” (FUJIFILM CORPORATION, priority 2010, published 2011) can be followed below.

Series [1] concerns Pellicle-derived human normal keratinocytes. Conditions: 48 h. As for the experimental part: Pellicle-derived human normal keratinocytes were inoculated into a 10% (v/v) FBS-containing MEM medium on a 12-well culture plate, at a cell density of 1.9×10^4 cells/well. Thereafter, the cells were pre-cultured for 24 hours according to an ordinary method. […] After completion of the culture, the cells were washed with PBS, and a survival test was then carried out according to a common method using MTT. Specifically, a 0.5 mg/mL MTT solution was added to the culture plate, resulting in a concentration of 500 μL/well, and it was then incubated in an incubator for 2 hours. Thereafter, 1.5 mL of dimethyl sulfoxide was added thereto, and the absorbance at a wavelength of 570 nm was then measured. The obtained absorbance was used as an indicator for the number of surviving cells. The number of surviving cells obtained in the case of not adding an evaluation sample was defined as 100, and the cell survival percentage (%) obtained in the case of adding an evaluation sample was obtained.

The test system of series [2] is matrix metalloprotease 9. Nature of the series: Suppression of production of matrix metalloprotease 9 on epidermis, TGF β1 or β2 induction, ELISA of culture supernatant. It counts as cell-based, human. Conditions: keratinocytes, TGF β1 or β2 5 ng/ml, 0.45 μg/ml, 48 hours. As for the experimental part:
Thereafter, the medium was exchanged with a test medium which had been prepared by adding TGF (transforming growth factor) β1 or β2 which is known to be released as a matrix metalloprotease 9 production promoting factor from cells upon UV irradiation, to a 1% (v/v) FBS-containing MEM medium to a final concentration of 5 ng/ml, so as to produce a matrix metalloprotease 9 induction test system. […] Specifically, the concentration of a grape extract was set at 100 μg/ml, and the concentration of a Salacia plant extract (the present invention) was set at 100 μg/ml. These test substances were each added to a test medium, and the medium was then exchanged with a fresh one. Thereafter, culture was carried out for 48 hours. After completion of the culture, a culture supernatant was recovered. The recovered supernatant was assayed according to the ELISA method with Matrix Metalloprotease-9, Human, Assay (GE Healthcare, RPN2614). Measurement was carried out in accordance with protocols provided by the distributer, and the value at a wavelength of 630 nm was measured using a wavelength-tunable microplate reader, Sunrise Rainbow Thermo (SUNRISE) and was then quantified. […]

Read-outs that look alike come from different tables or passages of the source. Bounds are passed on as bounds.

In series [1] (0.15 μg/ml), `CC1=C(/C=C/C(C)=C/C=C/C(C)=C/C(=O)O)C(C)(C)CCC1` [retinoic acid] had a cell survival percentage of at least 70%. `C[C@H]1[C@H](C)CC[C@]2(C(=O)O)CC[C@]3(C)C(=CC[C@@H]4[C@@]5(C)CC[C@H](O)C(C)(C)[C@@H]5CC[C@]43C)[C@H]12` [ursolic acid] yielded a cell survival percentage in series [1] (0.45 μg/ml) of at least 70%. Further, in series [2], the “effect of suppressing the production of matrix metalloprotease 9 (MMP9 protein expression level)” value is listed as “did not have the effect of suppressing the production of matrix metalloprotease 9”.
